According to patent US9155792B2, “RecA inhibitors with antibiotic activity, compositions and methods of use” (Trustees of Boston University, priority 2006, dated 2015):

How the values were obtained:
E. coli RecA protein = molecular target: T1, E. coli RecA protein (Escherichia coli, UniProt P0A7G6); test: RecA ATPase luciferase assay; type: biochemical; conditions: compounds of FIGS. 2A and 2B
T1 construct: purchased New England Biolabs
Description: RecA is a DNA-dependent ATPase (i.e., it catalyzes the reaction adenosine triphosphate [ATP]→adenosine diphosphate [ADP]). An assay was developed for RecA ATPase activity based on detection of the amount of ATP remaining in a reaction mixture following incubation of RecA protein, DNA, and ATP. In the assay, E. coli RecA protein is incubated in reaction buffer with DNA, ATP, and any test compound or compounds for a measured amount of time. The quantity of ATP remaining after the RecA reaction is quantitated using a subsequent luciferase assay. The amount of ATP remaining can be compared to controls containing either a known inhibitor (full inhibition control) or no test compound (full activity control).
Kinase glo, Adenosine triphosphate, Adenosine 5′-O-(3-thiotriphosphate) plus and 384 well plates were obtained from Fisher, M13mp18 Single-stranded DNA, RecA protein, and T4 polynucleotide kinase reaction buffer (70 mM Tris-HCl pH7.5; 10 mM MgCl2; 5 mM DTT) were obtained from New England Biolabs.
Final reaction mixture contains: 0.5 μl of M13 single stranded DNA (250 μg/ml); 1.0 μl of 10×PHK buffer; 0.25 μl of RecA (2 mg/ml); 0.25 μl of 1 mM ATP; 0.25 μl of test compound in DMSO; and 12.0 μl of H2O.
Test compounds are incubated at room temperature in the presence of RecA protein and DNA prior to addition of ATP. This can be achieved by the preparation of two mixes, as indicated below. Desirably, both a no-DNA and a DNA/DMSO-only (i.e., no test compound) control were included.
The following steps are then performed: (1) Add 7.75 μl of mix 1 to the well of a 384 well plate; (2) Add 0.5 μl of the compound of interest; (3) Incubate at room temperature for 5 minutes; (4) Add 2.5 μl of the ATP mix. Incubate at room temperature for 30 minutes; (5) Add 12.5 μl of Promega Kinase glo plus; (6) Incubate at room temp for 10 minutes or more; and (7) Measure luminescence of the reaction.
Tested compounds were obtained from Boston University (1205 compounds from CMLD diversity library, available from Dr. Scott Schauss), IndoFine (66 compounds based on flavone structure), ChemdiV (48 compounds known to be ATPase inhibitors and 720 compounds structurally related to CB101 (described, for example, in U.S. Ser. No. 60/662,038), and Asinex. Five (5) tested compounds were bisflavones and 28 were predicted, based on structural modeling (see, for example, Example 20) to dock with Rec A. Many of the compounds are lipophilic, natural-product-like compounds. Others are flavones, bisflavones, flavonoids, coumarins, and/or heterocyclic compounds.
Percent inhibition is calculated according to the following equation:
[formula] A value of “−1” indicates higher than 50 μg/ml, therefore undetermined

S. aureus cells = test: Mutation/resistance assay (resistance to ciprofloxacin); type: cell-based
Description: This assay measures the rate at which mutant cells arise in the presence of an antibiotic agent. Cells are grown in the presence of antibiotic agent at a concentration above (generally well above, e.g., 4× or 8×) its MIC, and further in the presence or absence of a test agent (that may inhibit or enhance mutation).
Every 24 hours, an aliquot is removed from the culture and is diluted so that the antibiotic agent is no longer present at a concentration above its MIC (e.g., so that the antibiotic agent is present at 0.5×MIC or less). These aliquoted samples are then assayed to determine whether they can grow in the presence of the antibiotic agent. Specifically, when growth is observed in the presence of antibiotic agent at a concentration that is 4×MIC, then resistance is said to have developed. Test compounds can therefore be assayed to assess whether or not they can reduce the incidence of resistance (e.g., by inhibiting mutation).
These aliquoted samples were then assayed to determine whether they can grow in the presence of ciprofloxacin. […]

[1] = tested on: S. aureus strain S3 (ISP 794); test: Cell-based survival assay, S. aureus strain S3 (RecA+); conditions: 1 μg/ml ciprofloxacin + 25 μg/ml hinokiflavone, 16 hour time point

T1 sequence (P0A7G6 2-353): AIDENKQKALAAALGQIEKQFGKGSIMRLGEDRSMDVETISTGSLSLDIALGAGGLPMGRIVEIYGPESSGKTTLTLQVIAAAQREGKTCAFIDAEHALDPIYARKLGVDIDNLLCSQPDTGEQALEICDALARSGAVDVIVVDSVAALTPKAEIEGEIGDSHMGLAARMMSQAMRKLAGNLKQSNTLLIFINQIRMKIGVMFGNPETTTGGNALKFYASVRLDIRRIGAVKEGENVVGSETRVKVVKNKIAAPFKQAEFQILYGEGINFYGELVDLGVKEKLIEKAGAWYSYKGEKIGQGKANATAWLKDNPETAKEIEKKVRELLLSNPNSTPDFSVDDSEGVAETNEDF

`O=c1c(O)c(-c2ccc(O)cc2)oc2cc(O)ccc12` [3,7,4′-trihydroxyflavone] was tested. Which “activity in RecA ATPase screen” value (E. coli RecA protein) did it give?
Its value is “particularly active”.

How did the “activity in RecA ATPase screen” value (E. coli RecA protein) turn out when `O=c1cc(-c2ccc(O)cc2)oc2cc(O)c(O)c(O)c12` [6-hydroxy-apigenin] was run?
The value was “particularly active”.

Which “activity in RecA ATPase screen” value (E. coli RecA protein) does the source give for `O=c1cc(-c2ccc(O)cc2)oc2cc(O[C@@H]3O[C@H](CO)[C@@H](O)[C@H](O)[C@H]3O)cc(O)c12` [apigenin-7-O-glucoside] here?
Its value is “particularly active”.

`O=c1cc(-c2ccc(O)cc2)oc2cc(O)cc(O)c12` [apigenin] was tested. Which “activity in RecA ATPase screen” value (E. coli RecA protein) did it give?
Its value is “particularly active”.

What does the source list for `O=C(O)c1cn(C2CC2)c2cc(N3CCNCC3)c(F)cc2c1=O` [ciprofloxacin, reference compound]?
Number of Wells in which Growth Observed in Presence of Ciprofloxacin at 4 × MIC (S. aureus cells; culture grown 0 days in 4×MIC ciprofloxacin, −Hinokiflavone): 0; Number of Wells in which Growth Observed in Presence of Ciprofloxacin at 4 × MIC (S. aureus cells; culture grown 1 day in 4×MIC ciprofloxacin, −Hinokiflavone): 1; Number of Wells in which Growth Observed in Presence of Ciprofloxacin at 4 × MIC (S. aureus cells; culture grown 5 days in 4×MIC ciprofloxacin, −Hinokiflavone): 2; Number of Wells in which Growth Observed in Presence of Ciprofloxacin at 4 × MIC (S. aureus cells; culture grown 6 days in 4×MIC ciprofloxacin, −Hinokiflavone): 2; Number of Wells in which Growth Observed in Presence of Ciprofloxacin at 4 × MIC (S. aureus cells; culture grown 7 days in 4×MIC ciprofloxacin, −Hinokiflavone): 3; Number of Wells in which Growth Observed in Presence of Ciprofloxacin at 4 × MIC (S. aureus cells; culture grown 10 days in 4×MIC ciprofloxacin, −Hinokiflavone): 11

Which “activity in RecA ATPase screen” value (E. coli RecA protein) does the source give for `O=c1c(O)c(-c2ccc(O)c(O)c2)oc2cc(O)ccc12` [fisetin] here?
Its value is “particularly active”.

Which “fewer CFUs in presence of hinokiflavone as compared with its absence” value [1] does the source give for `O=c1cc(-c2ccc(Oc3c(O)cc4oc(-c5ccc(O)cc5)cc(=O)c4c3O)cc2)oc2cc(O)cc(O)c12` [hinokiflavone] here?
The value was “approximately 100 fold”.

And the “Number of Wells in which Growth Observed in Presence of Ciprofloxacin at 4 × MIC” value (from here on “Number of Wells in which Growth Observed”) (S. aureus cells; culture grown 0 days in 4×MIC ciprofloxacin, +Hinokiflavone (25 μg/ml))?
The value was 0.

What about the “Number of Wells in which Growth Observed” value (S. aureus cells; culture grown 1 day in 4×MIC ciprofloxacin, +Hinokiflavone (25 μg/ml)) of the same compound?
Its value is 0.

What about the “Number of Wells in which Growth Observed” value (S. aureus cells; culture grown 5 days in 4×MIC ciprofloxacin, +Hinokiflavone (25 μg/ml)) of the same compound?
The value was 0.

What about the “Number of Wells in which Growth Observed” value (S. aureus cells; culture grown 6 days in 4×MIC ciprofloxacin, +Hinokiflavone (25 μg/ml)) of the same compound?
Its value is 0.

What about the “Number of Wells in which Growth Observed” value (S. aureus cells; culture grown 7 days in 4×MIC ciprofloxacin, +Hinokiflavone (25 μg/ml)) of the same compound?
Its value is 3.

And the “Number of Wells in which Growth Observed” value (S. aureus cells; culture grown 10 days in 4×MIC ciprofloxacin, +Hinokiflavone (25 μg/ml))?
Its value is 4.

Which “activity in RecA ATPase screen” value (E. coli RecA protein) does the source give for `COc1cc(-c2oc3cc(O)cc(O)c3c(=O)c2O)ccc1O` [isorhamnetin] here?
The value was “particularly active”.

`O=c1c(O)c(-c2ccc(O)cc2)oc2cc(O)cc(O)c12` [kaempferol] was tested. Which “activity in RecA ATPase screen” value (E. coli RecA protein) did it give?
The value was “particularly active”.

`O=C(c1ccc(O)c(O)c1)c1c(O)cc(O)cc1O` [maclurin] was tested. Which “activity in RecA ATPase screen” value (E. coli RecA protein) did it give?
Its value is “particularly active”.

For `O=c1c(O)c(-c2ccc(O)cc2O)oc2cc(O)cc(O)c12` [morin], which “activity in RecA ATPase screen” value (E. coli RecA protein) is on record?
Its value is “particularly active”.

For `O=c1c(O)c(-c2ccc(O)c(O)c2)oc2cc(O)c(O)c(O)c12` [quercetagetin], which “activity in RecA ATPase screen” value (E. coli RecA protein) is on record?
The value was “particularly active”.

Which “activity in RecA ATPase screen” value (E. coli RecA protein) does the source give for `O.O.O=c1c(O)c(-c2ccc(O)c(O)c2)oc2cc(O)cc(O)c12` [quercetin dihydrate] here?
Its value is “particularly active”.

How did the “activity in RecA ATPase screen” value (E. coli RecA protein) turn out when `O=c1c(O)cc([C@H]2Oc3cc(O)cc(O)c3C[C@H]2O)cc2c([C@H]3Oc4cc(O)cc(O)c4C[C@H]3O)cc(O)c(O)c12` [theaflavin] was run?
Its value is “particularly active”.
